Measured values from patent US20250361274A1, “PEPTIDE AND PEPTIDE-CONTAINING AGENT” (PEPTIDREAM INC., priority 2022, published 2025).
Entries after “also recorded” stand apart in the source; their conditions may differ. Numbered stars: 1 amine (or outer) side, 2 acyl side, 3 side chain; on linkers, the order of the positions; unused ones are H or OH. Bridge positions count the residues as written; N and C are the ends. Square brackets hold non-standard residues; d marks the D form. Peptide text beside a SMILES is read from it. ξ: configuration not given here. X2 = O=C(C[C@@H](Cc1ccc(-c2ccccc2)cc1)C(=O)[*:2])[C@@H]1CCCN1[*:1]; Phe(4-COOH) = N[C@@H](Cc1ccc(C(=O)O)cc1)C(=O)O; Bip = N[C@@H](Cc1ccc(-c2ccccc2)cc1)C(=O)O; Nle(6-COOH) = N[C@@H](CCCCC(=O)O)C(=O)O; X1 = N=C(CN)NCCC[C@H](N[*:1])C(=O)[*:2]; Ala(4-THP) = N[C@@H](CC1CCOCC1)C(=O)O; ξE = NC(CCC(=O)O)C(=O)O; βAla = NCCC(=O)O

How the values were obtained:
BMP2 = target: T1, BMP2 (Homo sapiens, UniProt P12643); assay: BMP family signal transduction inhibition (SMAD1 phosphorylation), BMP2 stimulus; format: cell-based
T1 sequence (P12643 283-396): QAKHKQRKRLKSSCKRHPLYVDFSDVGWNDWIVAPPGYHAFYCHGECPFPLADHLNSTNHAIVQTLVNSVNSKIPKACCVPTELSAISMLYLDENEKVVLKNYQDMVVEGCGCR
From the text: In the present Example, BMP4 signal transduction inhibition peptide No. 177, peptide No. 29986 (SEQ ID NO: 277 (Example 8)), and peptide SEQ ID NO: 417 (Example 6) synthesized in Example 2, Example 8, and Example 6 were verified in the same manner as in Example 13 in order to confirm presence or absence of signal transduction inhibitory activities obtained by BMPs 2, 5, 6, 9, 12, and 14 belonging to the respective BMP families.
Regarding the concentrations of the respective BMPs in the evaluation, 0.3 nM of BMP2, 2 nM of BMP5, 3 nM of BMP6, 10 nM of BMP9 and BMP12, and 0.6 nM of BMP14 were added, followed by application of stimulus.
Regarding No. 177, the concentrations of the peptides were as follows. Specifically, eight concentrations of the peptides were used at a common ratio of 1/3 starting from 10 nM (BMP2), starting from 200 nM (BMP5), starting from 100 nM (BMP6), starting from 1,000 nM (BMP9 and BMP12), and starting from 60 nM (BMP14). The evaluation was performed in the same manner as in Example 11 except for the above points. Note that recombinant Human Noggin Protein (R&D) as a positive control was used at the same concentration as the peptide.
Regarding the peptide SEQ ID NO: 277 (Example 8), the concentrations of the peptides were as follows. […]

BMP4 = target: T2, BMP4 (Homo sapiens, UniProt P12644); assay: BMP4 signal transduction inhibitory activity: SMAD1 phosphorylation by BMP4 stimulus, AlphaLISA SureFire, A549 cells; format: cell-based
T2 sequence (P12644 293-408): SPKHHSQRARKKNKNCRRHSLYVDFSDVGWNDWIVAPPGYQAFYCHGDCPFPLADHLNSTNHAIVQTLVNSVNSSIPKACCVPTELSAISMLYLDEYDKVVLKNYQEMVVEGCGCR

## CC(C)[C@@H]1NC(=O)[C@H](CCCNC(=N)N)NC(=O)[C@H](CCCCC(=O)O)NC(=O)CSC[C@@H](C(=O)NCCC(=O)NC(CCC(=O)O)C(=O)O)NC(=O)[C@H](CO)NC(=O)[C@H](Cc2ccc(C(=O)O)cc2)NC(=O)[C@H](Cc2ccc(C(=O)O)cc2)NC(=O)[C@H](Cc2ccc(O)cc2)NC(=O)[C@H](Cc2ccc(-c3ccccc3)cc2)CC(=O)[C@@H]2CCCN2C(=O)[C@H](Cc2ccc(O)cc2)NC(=O)[C@@H]2CCCN2C(=O)[C@H](Cc2ccc(-c3ccccc3)cc2)NC(=O)[C@H](CCCNC(=N)CN)NC(=O)[C@H](CC(=O)O)NC(=O)[C@H](CC2CCOCC2)NC(=O)[C@H](Cc2ccc(C(=O)O)cc2)NC1=O (stereo partly shown) [SEQ ID No. 177] ({CH2CO}-[Nle(6-COOH)]RV[Phe(4-COOH)][Ala(4-THP)]D[X1][Bip]PY[X2]Y[Phe(4-COOH)][Phe(4-COOH)]SC[βAla][ξE]-OH; thioether N-16)
BMP2
  BMP2 signal transduction inhibitory activity (in words): signal transduction inhibitory activities of BMP2, BMP5, and BMP6
BMP4
  BMP4 inhibitory activity (in words): same level of the BMP4 inhibitory activity as Noggin; also recorded: signal transduction inhibitory activities of BMP4 and BMP7
BMP4; Table 2, eight concentrations, ratio 1/3 from 2 nM, A549 cells
  IC50: 0.053 nM
BMP4; class of inhibition of SMAD1 phosphorylation by BMP4 stimulus, AlphaLISA, A549 cells
  aLISA BMP4: A (showed an inhibitory activity of 50% or more in a zone to which the peptide was added to in an amount of 0.2 nM)
